Data set [1] in a line: Tested for the stability in water after 6h, activity expressed as percentage hydrolysis. In kind it is physicochemical. To be noted: read-out: Hydrolysis.
Data set [2] in a line: Tested for the stability in water after 24h, activity expressed as percentage hydrolysis. It is filed as physicochemical. To be noted: read-out: Hydrolysis.

For four molecules, degraded results are on record in ChEMBL document CHEMBL1122120, “Brain levels and metabolism of the dopaminergic agonist 2-amino-6,7-dihydroxytetrahydronaphthalene after administration of various prodrugs” (J Med Chem, 1982).

The structures appear in SMILES notation.

Consider `CC(C)(C)C(=O)Oc1cc2c(cc1OC(=O)C(C)(C)C)CC(N)CC2` (stereo not drawn), for which the degraded at 6 h in data set [1] stood at 0.01%. The degraded at 24 h in data set [2] stood at 0.02%.

`CC(=O)Oc1cc2c(cc1OC(C)=O)CC(N)CC2` (stereo not drawn): in data set [1], the degraded at 6 h is 1.64%. Further, the degraded at 24 h in data set [2] turned out to be 3.74%.

Take `NC1CCc2cc(OC(=O)c3ccccc3)c(OC(=O)c3ccccc3)cc2C1` (stereo not drawn): in data set [1], the degraded at 6 h was determined as 0.03%. Further, in data set [2], the degraded at 24 h turned out to be 0.06%.

In the case of `CC(C)C(=O)Oc1cc2c(cc1OC(=O)C(C)C)CC(N)CC2` (stereo not drawn), the degraded at 6 h in data set [1] was 0.06%. Also, the degraded at 24 h in data set [2] came to 0.23%.
